Measurements published in EP0084677A1, “New compound having mucoregulating and fluidifying activity, process for its production and relative pharmaceutical compositions” (priority 1982, dated 1983).

Experiments:
[1] = tested on: tracheo-bronchial mucus from rabbit; assay: Fluidifying activity "in vivo" (microviscosimeter on tracheo-bronchial mucus); conditions: 500 mg/kg/os
male rabbit = assay: Mucosecretolytic activity (technique of Giraldez et al.); format: in vivo; conditions: 500 mg/kg/os
Wistar rat = assay: Acute toxicity (Litchfield and Wilcoxon method), rat; format: in vivo
Description: (§1) The acute toxicity has been determined in Swiss mouse and in Wistar rat for different administra tion routes, according to the method of Litch- field J.T. and Wilcoxon LJ. Pharm. Exp. Therap. 96, 99-113 (1949)]. The results obtained are reported in the following Table I; from the same it can be pointed out how AFP 736 is endowed with a very low acute toxicity.

Swiss mouse = assay: Acute toxicity (Litchfield and Wilcoxon method), mouse; format: in vivo
Description: as §1

male Wistar rat = assay: Bronchosecretogogue activity (method of Mawatari); format: in vivo; conditions: 500 mg/kg/os, FlNa = Sodium fluoresceine

Compound | % Reduction of mucus viscosity [1] | % Increase of secretion in comparison with controls (male rabbit) | LD50 (Wistar rat; i.p.) | LD50 (Wistar rat; os) | LD50 (Swiss mouse; i.p.) | LD50 (Swiss mouse; os) | % Increase of FlNa in comparison with controls (male Wistar rat)
5-[(2-metho xy-phenoxy) caxbonyloxy]- α,α, 4-trimethyl-3-cyclohexen-1-methanol [AFP 736] | 32.2% | 45.5% | 2340 mg/kg | >4000 mg/kg | 1750 mg/kg | 3100 mg/kg | 79.3%
NC(CSCC(=O)O)C(=O)O (centres unmarked) [Carboxy-methylcysteine, carboxymethylcysteine] |  | 40.2% |  |  |  |  | 39.7%
COc1ccccc1O [Guaiacol, 2-methoxyphenol] | 4.1% |  |  |  |  |  | 
COc1ccccc1OCC(O)CO (centres unmarked) [Guaiphe-nesine, guaiphenesin] |  |  |  |  |  |  | 12.6%
CC1=CCC(C(C)(C)O)CC1O (centres unmarked) [Sobrerol, 2-methyl-5-(1-hydroxy-1-methyl-ethyl)-2-cyclohexen-1-ol] | 15.6% | 36.8% |  |  |  |  | 33.4%
